In article PMC8765048 (JCI Insight, 2022):
Read-outs that look alike come from different tables or passages of the source.

Legend:
SARS-CoV-2 [1] = experiment: Combinatorial sangivamycin/remdesivir efficacy testing, Vero E6 cells; assay type: cell-based; settings: read-out: IC50 (nM), S:R by [Sangivamycin]
SARS-CoV-2 P.1 (Gamma) = experiment: microbe, parasite or virus in culture; assay type: cell-based
[2] = CellTiter-Glo cell viability assay; assay type: cell-based; settings: human, HEK293T cells
A549 cells = experiment: Phospholipidosis imaging (NBD-PE fluorescence); settings: 24 h, sangivamycin up to 5 μM, melperone 10 μM, amiodarone positive control
SARS-CoV-2 WA1 [3] = experiment: microbe, parasite or virus in culture; assay type: cell-based
[4] = tested on: Calu-3 (human lung adenocarcinoma); experiment: CellTox Green Cytotoxicity Assay; settings: ratio > 1 cytostatic, ≤ 1 cytotoxic
[5] = tested on: SARS-CoV-2 B.1.429 (Epsilon); experiment: microbe, parasite or virus in culture; assay type: cell-based
SARS-CoV-2 [6] = experiment: Combinatorial sangivamycin/remdesivir efficacy testing, Calu-3 cells; assay type: cell-based; settings: Severe acute respiratory syndrome coronavirus 2, Calu-3; read-out: IC50 (nM), S:R by [Sangivamycin]
[7] = tested on: SARS-CoV-2 B.1.617.2 (Delta); experiment: microbe, parasite or virus in culture; assay type: cell-based
SARS-CoV-2 WA1 [8] = experiment: microbe, parasite or virus in culture; assay type: cell-based; remark: listed apart in the source
SARS-CoV-2 P.2 (Zeta) [9] = experiment: microbe, parasite or virus in culture; assay type: cell-based
SARS-CoV-2 P.2 (Zeta) [10] = experiment: microbe, parasite or virus in culture; assay type: cell-based; remark: listed apart in the source
[11] = tested on: HEK293T (human embryonic kidney); experiment: CellTox Green Cytotoxicity Assay; settings: ratio > 1 cytostatic, ≤ 1 cytotoxic
SARS-CoV-2 WA1 [12] = experiment: microbe, parasite or virus in culture; assay type: cell-based; settings: Severe acute respiratory syndrome coronavirus 2, Caco-2, 96 h
[13] = tested on: SARS-CoV-2 B.1.429 (Epsilon); experiment: microbe, parasite or virus in culture; assay type: cell-based; remark: listed apart in the source
[14] = tested on: SARS-CoV-2 B.1.351 (Beta); experiment: microbe, parasite or virus in culture; assay type: cell-based
[15] = Turbidimetric aqueous solubility screening; assay type: physicochemical; settings: PBS, pH 7.4, PBS pH 7.4, 2 hours at 37°C, high test concentration 500 μM
Description: Aqueous solubility of sangivamycin was measured using a high-throughput turbidimetric assay performed by Cyprotex. Initially, sangivamycin stock DMSO solution was diluted in DMSO to produce a range of concentrations. These dilutions were added to PBS at pH 7.4 (high test concentration 500 μM) and incubated for 2 hours at 37°C. At the end of the incubation period, the absorbance at 620 nm was measured for each concentration for 2 replicates to determine turbidity from precipitate formation.

Huh-7 cells = experiment: Mitochondrial dye cell imaging (MTG, NAO); assay type: cell-based, human; settings: 100 nM for 5 d, MTG and NAO
Description: Other important measures of cell viability are mitochondrial integrity, function, cardiotoxicity, and genotoxicity, since other nucleoside analogs may vary in their effect on these endpoints ([29], [30]). Dyes commonly used to assess mitochondrial integrity are MitoTracker Green (MTG), a mitochondrial stain mostly localized to mitochondria based on hydrophobicity, and N-alkyl acridine orange (NAO), which binds to mitochondrial cardiolipin. Untreated Huh-7 cells and Huh-7 cells treated for 5 days with 100 nM sangivamycin were stained with MTG and NAO and imaged by fluorescence microscopy. […] To more quantitatively assess the impact of sangivamycin on mitochondrial integrity, we evaluated the effect of sangivamycin on mitochondrial metabolic function as well as cytoplasmic glycolytic function. The XF96e Seahorse instrument was used to quantify the oxygen consumption rate (OCR) over time in untreated control and sangivamycin-treated Huh-7 cells. […] Standard metabolic endpoints quantified with or without sangivamycin included sequential treatment and washout of cell cultures with oligomycin (ATP synthase inhibitor), carbonyl cyanide 4-(trifluoromethoxy)phenylhydrazone (FCCP; a proton gradient uncoupler), and antimycin A + rotenone (complex I and III blockers) (Supplemental Figure 7).
Huh-7 cells were untreated or treated with 100 nM sangivamycin for 5 days. […]

[16] = tested on: Lassa virus, Ebola virus, Marburg virus, cowpox virus and vaccinia virus; settings: Vero E6 and Huh-7 cells; cited from earlier work
human cancer patients = settings: 40 human cancer patients, cited from earlier work
multiple cell types = experiment: CellTox Green Cytotoxicity Assay, average of 6 cell types; settings: average ± SEM, n = 6 cell lines
[17] = CellTiter-Glo cell viability assay; assay type: cell-based; settings: human, A549 cells; A549, 72 h
[18] = Severe acute respiratory syndrome coronavirus 2, Calu-3, 24 h
[19] = Severe acute respiratory syndrome coronavirus 2, Calu-3, 72 h
[20] = Severe acute respiratory syndrome coronavirus 2, VeroE6/TMPRSS2, 18 h
[21] = Severe acute respiratory syndrome coronavirus 2, Vero C1008, 48 h
[22] = Severe acute respiratory syndrome coronavirus 2, Vero C1008, 24 h
[23] = Severe acute respiratory syndrome coronavirus 2, Vero C1008, 18 h

NC(=O)c1cn([C@@H]2O[C@H](CO)[C@@H](O)[C@H]2O)c2ncnc(N)c12 [Sangivamycin, sangivamycin]
IC50 (SARS-CoV-2 [1]; Severe acute respiratory syndrome coronavirus 2, Vero C1008): 34 nM
IC50 (SARS-CoV-2 [1]; listed as S:R 1:0): 34.3 nM
SI (selectivity index, CC50/IC50) (SARS-CoV-2 P.1 (Gamma); P.1 (Gamma), Calu-3 cells): >9.5
IC50 (SARS-CoV-2 P.1 (Gamma); [18]): 63.3 nM
IC90 (SARS-CoV-2 P.1 (Gamma); [18]): 204 nM
CC50 at 72 h [2]: 885 nM
NBD-PE fluorescence (phospholipidosis) (A549 cells): no significant NBD-PE fluorescence above the DMSO control baseline
IC50 (SARS-CoV-2 WA1 [3]; [19]): 61 ± 8 nM
IC90 (SARS-CoV-2 WA1 [3]; [19]): 190 ± 23 nM
SI (selectivity index, CC50/IC50) (SARS-CoV-2 WA1 [3]; WA1, Calu-3 cells): 5.3
Ratio CellTox Green/CellTiter-Glo [4]: >15.5
SI (selectivity index, CC50/IC50) ([5]; B.1.429 (Epsilon), Calu-3 cells): >8.4
IC50 [5, 18]: 71.1 nM
IC90 [5, 18]: 234 nM
IC50 (SARS-CoV-2 [6]): 69.6 nM
IC50 [7]: 80.4 nM
SI (selectivity index, CC50/IC50) ([7]; B.1.617.2 (Delta), Vero E6/TMPRSS2 cells): >7.5
IC50 [7, 20]: 80 nM
IC90 [7, 20]: 263 nM
IC90 (SARS-CoV-2 WA1 [8]; [21]): 64 ± 3 nM
IC50 (SARS-CoV-2 WA1 [8]; Severe acute respiratory syndrome coronavirus 2, Vero C1008, 48 h, read-out: IC50): 34 ± 1 nM
IC50 (SARS-CoV-2 WA1 [8]; Severe acute respiratory syndrome coronavirus 2, Vero C1008, read-out: average IC50): 52 ± 13 nM
SI (selectivity index, CC50/IC50) (SARS-CoV-2 WA1 [8]; WA1, Vero E6 cells): 14.4
SI (selectivity index, CC50/IC50) (SARS-CoV-2 P.2 (Zeta) [9]; P.2 (Zeta), Calu-3 cells): >15.2
IC50 (SARS-CoV-2 P.2 (Zeta) [9]; [18]): 39.6 nM
IC90 (SARS-CoV-2 P.2 (Zeta) [9]; [18]): 122 nM
SI (selectivity index, CC50/IC50) (SARS-CoV-2 P.2 (Zeta) [10]; P.2 (Zeta), Vero E6 cells): >20.1
IC50 (SARS-CoV-2 P.2 (Zeta) [10]; [22]): 29.8 nM
IC90 (SARS-CoV-2 P.2 (Zeta) [10]; [22]): 125 nM
Ratio CellTox Green/CellTiter-Glo [11]: >5.65
IC50 (SARS-CoV-2 WA1 [12]): 14 ± 2 nM
IC90 (SARS-CoV-2 WA1 [12]): 63 ± 17 nM
SI (selectivity index, CC50/IC50) ([13]; B.1.429 (Epsilon), Vero E6 cells): >8.2
IC50 [13, 21]: 72.8 nM
IC90 [13, 21]: 465 nM
SI (selectivity index, CC50/IC50) ([14]; B.1.351 (Beta), Vero E6 cells): >10.5
IC50 [14, 23]: 57.4 nM
IC90 [14, 23]: 224 nM
solubility at 2 h [15]: ≥ 500 µM
Effect on mitochondrial integrity (imaging with mitochondrial dyes) (Huh-7 cells): Negative
Effect on mitochondrial integrity (imaging with mitochondrial dyes) (Huh-7 cells; listed as sangivamycin): did not significantly affect mitochondrial structural integrity
IC50 [16]: nanomolar range
MTD (human cancer patients; 0.1–2.83 mg/kg total dose): not reached
tolerability (human cancer patients; daily, thrice weekly, or weekly dosing, 0.1–2.83 mg/kg total dose): well tolerated
activity against the disease (cancer) (human cancer patients): inactive
Ratio CellTox Green/CellTiter-Glo, Average (multiple cell types): >12.2 ± 3.78
CC50 at 72 h [17]: 173 nM
